In patent US11452721B2, “Formulations of pimavanserin” (ACADIA Pharmaceuticals Inc., priority 2017, dated 2022):

Assays:
[1] = Laser light scattering particle size distribution (Malvern Mastersizer 2000); format: physicochemical; settings: before vs after granulation, FIG. 4/5
Description: The small quantity of water, its application using appropriate water atomization and/or water application rate are important reasons for the improved properties of pimavanserin. […] The actual amount of water to be sprayed at the granulation of pimavanserin may vary from batch to batch (depending on surrounding factors such as humidity, temperature, exact properties of the API batch, etc) but is still consider to be a small amount, e.g. 3-10% w/w based on the dry ingredients. The amount of water and the granulation process disclosed herein is controlled by controlling the impeller energy to achieve the targeted impeller speed. The appropriate impeller speed ensures sufficient mixing and controls the growth of granules. The specific small amount of water needed for each batch is controlled by the power consumption (amperage) of the granulator, i.e., if the amperage is […], additional amounts of water could be sprayed to the granulate in order to obtain pimavanserin having the properties desired in order to pharmaceutically manufacture capsules comprising 5-34 mg pimavanserin. […] The properties are achieved via a manufacturing process that includes granulation, using a suitable granulator, e.g. a high shear granulator, simultaneously spraying the adequate amount of water while mixing, followed by screening, and blending appropriate quantities of excipients. […]

[2] = Bulk density according to USP <616> method 1; format: physicochemical
Experimental: (§1) Carr's Index compares the difference between the bulk density and tapped density of a substance to determine its compressibility. The bulk density and the Carr's Index may be determined in accordance with USP<616> (method for performing Bulk and Tapped Densities, method 1) and USP<1174> (definition of powder flow) respectively.
(§2) Table 1 visualizes that filling of a capsule, in particular a capsule of size 3 or 4 (capsule volumes of 0.30 and 0.21 ml respectively, approximately 120 mg and 85 mg respectively at a bulk density of […]). As evident from Table 1, native pimavanserin (API) would be challenging for a size 3 capsule and not possible for a capsule of size 4 without improving the bulk density (as comparison 85 mg of pimavanserin granulation would require about 0.17 ml compared to 0.29 ml for the native API) and flowability (Carr index is frequently used in pharmaceutical manufacturing as an indication of the flowability of a powder, e.g. 2016 U.S. Pharmacopoeias-National Formulary [USP 35 NF 30]).
The bulk density of the blended composition is >0.4 g/ml, such as 0.4-0.6 g/ml, such as about 0.5 g/ml determined according to USP <616>, method 1. […]
The bulk density of pimavanserin granulation is >0.4 g/ml, such as 0.4-0.6 g/ml, such as about 0.5 g/ml, determined according to USP <616>, method 1. […]

[3] = FT4 Powder Rheology (FT4 Powder Rheometer, ASTM D7891-15); format: physicochemical; settings: FT4 measurement
Description: In addition to the bulk density and Carr's Index obtained according to USP <616>, method 1, FT4 Powder Rheology was obtained for the API (pimavanserin tartrate) and for the compositions disclosed herein using a FT4 Powder Rheometer according to ASTM D7891-15; Standard Test Method for Shear Testing of Powders Using the Freeman Technology FT4 Powder Rheometer Shear Cell.
As discussed herein above the flowability of the composition has been improved compared to the API (pimavanserin tartrate), which for example can be supported by the Specific Energy (SE) obtained from the FT4 measurements. Specific Energy is a measure of the powder's flowability when unconfined, such as during low stress filling, or low shear blending. The average Specific Energy (SE) for the API is about 10.08+/−0.23 mJ/g.
The FT4 Powder Rheometer was also used as yet another means to compare the bulk density between the API, the granulated pimavanserin and the blended pimavanserin compositions disclosed herein and in the accompanying claims. The bulk density is a conditioned bulk density as obtained by the FT4 measurement, in accordance with ASTM D7891-15; Standard Test Method for Shear Testing of Powders Using the Freeman Technology FT4 Powder Rheometer Shear Cell.
The blended pimavanserin composition used in the herein mention FT4 Powder Rheometry measurements comprised 34 mg pimavanserin, 59 mg microcrystalline cellulose and 1 mg magnesium stearate.

[4] = Carr's Index (Carr's Compressibility Index), USP <616>/<1174>; format: physicochemical
Experimental: as §1, §2

[5] = test system: DOI ((±)-2,5-dimethoxy-4-iodoamphetamine, a serotonin agonist) induced head twitches; settings: rat; oral doses of 3 and 10 mg/kg; cited from earlier work
[6] = test system: hyperactivity induced by the N-methyl-D-aspartate antagonist MK-801; settings: mice; oral doses of 3 and 10 mg/kg; cited from earlier work

| Compound | particle size distribution D90 [1] | volume required by 85 mg ([2]; 85 mg of material, from bulk density) [mL] | Bulk density according to USP <616> ([2]; USP <616> method 1) [g/mL] | average Flow Rate Index (FRI) [3] | average Specific Energy (SE) [3] | average conditioned bulk density (CBD) ([3]; ASTM D7891-15) [g/mL] | Carr's Index [4] | activity in DOI induced head twitches [5] | attenuation of MK-801 induced hyperactivity [6] |
| --- | --- | --- | --- | --- | --- | --- | --- | --- | --- |
| pimavanserin tartrate [Native API] | about 30 μm | 0.29 | 0.294 | 1.90±0.01 | about 10.08+/−0.23 mJ/g | 0.336 ± 0.006 | 36 | – | – |
| CC(C)COc1ccc(CNC(=O)N(Cc2ccc(F)cc2)C2CCN(C)CC2)cc1 [Pimavanserin, N-(1-methylpiperidin-4-yl)-N-(4-fluorophenylmethyl)-N′-(4-(2-methylpropyloxy)phenylmethyl)carbamide] | – | – | – | – | – | – | – | effective | effective |
